# Experimental data reported in US12336982B2 (RODEO THERAPEUTICS CORPORATION, priority 2018, dated 2025).
# Biological target: T1, recombinant 15-PGDH (Homo sapiens, UniProt P15428)
# T1 sequence (P15428 1-266): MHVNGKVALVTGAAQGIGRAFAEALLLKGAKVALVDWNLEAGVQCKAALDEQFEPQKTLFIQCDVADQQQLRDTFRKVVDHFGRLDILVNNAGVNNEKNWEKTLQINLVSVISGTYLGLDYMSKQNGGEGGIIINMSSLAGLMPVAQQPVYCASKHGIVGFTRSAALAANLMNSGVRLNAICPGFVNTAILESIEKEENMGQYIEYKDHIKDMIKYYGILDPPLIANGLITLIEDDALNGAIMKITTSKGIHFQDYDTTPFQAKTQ
# Type: biochemical
# Details: recombinant human 15-PGDH, in vitro; read-out: PDGH Assay-IC50
# From the text: The Recombinant 15-PGDH is human unless otherwise specified.
row,SMILES,IC50
1,COCC[S+]([O-])c1sc2nc(-c3ccc(=O)[nH]c3)cc(-c3ccccc3)c2c1N (centres unmarked) [Example 167],< 2.5 nM
2,Nc1c([S@+]([O-])C2CCC2)sc2nc(-c3cnc(NCCO)nc3)cc(-c3ccccc3)c12 [Example 51],< 2.5 nM
3,Nc1c([S@@+]([O-])C2CCC2)sc2nc(-c3cnc(NCCO)nc3)cc(-c3ccccn3)c12 [Example 95],≥ 10 nM
4,COCCC[S@@+]([O-])c1sc2nc(-c3cccnc3)nc(-c3ccccc3)c2c1N [Example 54],< 2.5 nM
5,COCCC[S+]([O-])c1sc2nc(-c3cnc4c(cnn4C)c3)cc(-c3cccnc3)c2c1N (centres unmarked) [Example 74],< 2.5 nM
6,COCC[S+]([O-])c1sc2nc(-c3cncnc3)cc(C)c2c1N (centres unmarked) [Example 173],< 2.5 nM
7,COCC[S@@+]([O-])c1sc2nc(-c3cncnc3)cc(-c3ncccn3)c2c1N [Example 230],< 2.5 nM
8,Nc1c([S@+]([O-])C2CCC2)sc2nc(-c3cnc(NCCO)nc3)cc(C3CCC3)c12 [Example 306],< 2.5 nM
9,Nc1c([S+]([O-])C2CCC2)sc2nc(-c3cncnc3)cc(-c3ccc(C4COC4)cn3)c12 (centres unmarked) [Example 128],< 2.5 nM
10,Cn1cc(-c2cc(-c3cnc4nn(C)cc4c3)nc3sc([S+]([O-])C4CCC4)c(N)c23)cn1 (centres unmarked) [Example 279],2.5 to 10 nM
11,COCCC[S+]([O-])c1sc2nc(-c3cnc(N)nc3)cc(-c3ccc(F)cc3)c2c1N (centres unmarked) [Example 46],< 2.5 nM
12,COCCC[S@@+]([O-])c1sc2nc(-c3cncnc3)cc(-c3ccncn3)c2c1N [Example 238],< 2.5 nM
13,COCC[S+]([O-])c1sc2nc(-c3cncnc3)cc(C(F)(F)F)c2c1N (centres unmarked) [Example 130],< 2.5 nM
14,COCC[S+]([O-])c1sc2nc(-c3cnc4nn(CCO)cc4c3)cc(C3CCC3)c2c1N (centres unmarked) [Example 266],< 2.5 nM
15,Nc1c([S@+]([O-])C2CCC2)sc2nc(-c3cnc(NCCO)nc3)cc(C(F)(F)F)c12 [Example 205],< 2.5 nM
16,COCC[S@+]([O-])c1sc2nc(-c3cncnc3)cc(C3CC3)c2c1N [Example 149],≥ 10 nM
17,COCC[S@+]([O-])c1sc2nc(-c3cncnc3)cc(C(F)(F)F)c2c1N [Example 199],≥ 10 nM
18,COCCC[S+]([O-])c1sc2nc(-c3cnc(NCCO)nc3)cc(-c3ccc(F)cc3)c2c1N (centres unmarked) [Example 71],2.5 to 10 nM
19,COCC[S+]([O-])c1sc2nc(-c3ccc4[nH]nnc4c3)cc(-c3ccnn3C)c2c1N (centres unmarked) [Example 214],< 2.5 nM
20,Cn1cc(-c2cc(C3CC3)c3c(N)c([S+]([O-])C4CCC4)sc3n2)cn1 (centres unmarked) [Example 277],< 2.5 nM
21,Cn1cc(-c2cc(-c3cncnc3)nc3sc([S+]([O-])C4CCC4)c(N)c23)cn1 (centres unmarked) [Example 282],< 2.5 nM
22,Cn1cc(-c2cc(-c3cnc(N)nc3)nc3sc([S+]([O-])C4CCC4)c(N)c23)cn1 (centres unmarked) [Example 169],< 2.5 nM
23,COCC[S@+]([O-])c1sc2nc(-c3cccnc3)cc(C(F)(F)F)c2c1N [Example 81],≥ 10 nM
24,COCC[S+]([O-])c1sc2nc(-c3cnc4nn(C)cc4c3)cc(-c3ccccc3)c2c1N (centres unmarked) [Example 124],< 2.5 nM

row,SMILES,IC50
1,COCCC[S+]([O-])c1sc2nc(-c3cccnc3)nc(C3CC3)c2c1N (centres unmarked) [Example 191],2.5 to 10 nM
2,Nc1c([S+]([O-])C2CCC2)sc2nc(-c3cncnc3)cc(-c3ncccc3F)c12 (centres unmarked) [Example 121],< 2.5 nM
3,Cc1ncc(-c2cc(-c3ccccc3)c3c(N)c([S+]([O-])C4CCC4)sc3n2)cn1 (centres unmarked) [Example 99],< 2.5 nM
4,COCC[S@+]([O-])c1sc2nc(-c3cncnc3)cc(C3CCC3)c2c1N [Example 253],≥ 10 nM
5,COCCC[S+]([O-])c1sc2nc(-c3cnc(C)nc3)cc(C(F)(F)F)c2c1N (centres unmarked) [Example 136],2.5 to 10 nM
6,Nc1c([S+]([O-])C2CCC2)sc2nc(-c3cnc(NCCO)nc3)cc(-c3ccccn3)c12 (centres unmarked) [Example 92],< 2.5 nM
7,COCCC[S+]([O-])c1sc2nc(-c3cncnc3)cc(C(F)(F)F)c2c1N (centres unmarked) [Example 131],< 2.5 nM
8,COCCC[S+]([O-])c1sc2nc(-c3cnn(CCO)c3)cc(-c3ccccc3)c2c1N (centres unmarked) [Example 274],< 2.5 nM
9,COCC[S+]([O-])c1sc2nc(-c3cnc(N)nc3)cc(C(F)(F)F)c2c1N (centres unmarked) [Example 132],< 2.5 nM
10,Nc1ncc(-c2cc(-c3ncccc3F)c3c(N)c([S+]([O-])C4CCC4)sc3n2)cn1 (centres unmarked) [Example 77],< 2.5 nM
11,Nc1c([S@@+]([O-])C2CCC2)sc2nc(-c3ccc(NCCO)nc3)cc(-c3ccccn3)c12 [Example 96],< 2.5 nM
12,Cn1nccc1-c1cc(-c2cnc3c(=O)n(C)ccc3c2)nc2sc([S+]([O-])C3CCC3)c(N)c12 (centres unmarked) [Example 216],< 2.5 nM
13,COCC[S@+]([O-])c1sc2nc(-c3cnc(N)nc3)cc(-c3ccccc3)c2c1N [Example 88],≥ 10 nM
14,Nc1c([S@+]([O-])C2CCC2)sc2nc(-c3cnc(NCCOCCO)nc3)cc(-c3ccccc3)c12 [Example 184],< 2.5 nM
15,COCC[S+]([O-])c1sc2nc(-c3cncnc3)cc(C34CC(C3)C4)c2c1N (centres unmarked) [Example 256],< 2.5 nM
16,Nc1c([S+]([O-])C2CCC2)sc2nc(-c3cnc(NCCO)nc3)cc(-c3ccc(Cl)cc3)c12 (centres unmarked) [Example 159],< 2.5 nM
17,Nc1c([S+]([O-])C2CCC2)sc2nc(-c3cnc(NCCO)nc3)cc(-c3ccc(F)cn3)c12 (centres unmarked) [Example 118],2.5 to 10 nM
18,CS(=O)(=O)Nc1ncc(-c2cc(-c3ccccc3)c3c(N)c([S@+]([O-])C4CCC4)sc3n2)cn1 [Example 68],< 2.5 nM
19,CN1CCN(c2ncc(-c3cc(-c4ccccc4)c4c(N)c([S@@+]([O-])C5CCC5)sc4n3)cn2)CC1 [Example 49],≥ 10 nM
20,Nc1c([S+]([O-])C2CCC2)sc2nc(-c3cnc(N(CCO)CCO)nc3)cc(-c3ccccc3)c12 (centres unmarked) [Example 197],< 2.5 nM
21,COCCC[S+]([O-])c1sc2nc(-c3cnn(C)c3)cc(C3CC3)c2c1N (centres unmarked) [Example 278],< 2.5 nM
22,COCC[S+]([O-])c1sc2nc(-c3cnc(C)nc3)cc(C(F)(F)F)c2c1N (centres unmarked) [Example 137],< 2.5 nM
23,COCC[S@+]([O-])c1sc2nc(-c3cnc(N)nc3)cc(C3CC3)c2c1N [Example 151],≥ 10 nM

# Other lines, results leading:
row,IC50,SMILES
1,< 2.5 nM,COCC[S+]([O-])c1sc2nc(-c3cnc4ncnn4c3)cc(-c3ccccc3)c2c1N (centres unmarked) [Example 399]
2,< 2.5 nM,COCC[S@@+]([O-])c1sc2nc(-c3cnc4ncn(C)c4c3)cc(-c3ccccc3)c2c1N [Example 362]
3,< 2.5 nM,CNc1ncc(-c2cc(-c3ccnn3C)c3c(N)c([S+]([O-])CCOC)sc3n2)cn1 (centres unmarked) [Example 330]
4,< 2.5 nM,Cc1cc(-c2cc(-c3cnc(N)nc3)nc3sc([S+]([O-])C4CCC4)c(N)c23)n(C)n1 (centres unmarked) [Example 355]
5,2.5 to 10 nM,Cc1ncc(-c2cc(C3=CCNN3C)c3c(N)c([S+]([O-])C4CCC4)sc3n2)cn1 (centres unmarked) [Example 315]
6,≥ 10 nM,COCC[S@+]([O-])c1sc2nc(-c3cnc4nn(C)cc4c3)cc(C(F)(F)F)c2c1N [Example 419]
7,< 2.5 nM,Cn1nccc1-c1cc(-c2cnc3c(c2)nnn3C)nc2sc([S+]([O-])C3CCC3)c(N)c12 (centres unmarked) [Example 325]
8,< 2.5 nM,COCC[S+]([O-])c1sc2nc(-c3cnc4nn(C)nc4c3)cc(-c3ccnn3C)c2c1N (centres unmarked) [Example 380]
9,< 2.5 nM,COCC[S@@+]([O-])c1sc2nc(-c3cnc4nn(C)cc4c3)cc(-c3ccn(C)n3)c2c1N [Example 343]
10,< 2.5 nM,COCC[S+]([O-])c1sc2nc(-c3ccnnc3)cc(C3CCC3)c2c1N (centres unmarked) [Example 347]
11,< 2.5 nM,COCC[S+]([O-])c1sc2nc(-c3cnc4ncn(C)c4c3)cc(C3CC3)c2c1N (centres unmarked) [Example 404]
12,2.5 to 10 nM,CC1(O)CN(c2ncc(-c3cc(-c4ccccc4)c4c(N)c([S+]([O-])C5CCC5)sc4n3)cn2)C1 (centres unmarked) [Example 411]
13,2.5 to 10 nM,Cn1nccc1-c1cc(-c2ccc3c(=O)[nH]ccc3c2)nc2sc([S+]([O-])C3CCC3)c(N)c12 (centres unmarked) [Example 316]
14,< 2.5 nM,COCC[S@@+]([O-])c1sc2nc(-c3cnc4nn(C)cc4c3)nc(-c3ccccc3)c2c1N [Example 433]
15,< 2.5 nM,Nc1c([S+]([O-])C2CCC2)sc2nc(-c3cncnc3)cc(-c3cc[nH]n3)c12 (centres unmarked) [Example 307]
16,≥ 10 nM,Nc1c([S+]([O-])C2CCC2)sc2nc(-c3ccnn3C3CC3)cc(-c3cncnc3)c12 (centres unmarked) [Example 416]
17,< 2.5 nM,Nc1c([S+]([O-])C2CCC2)sc2nc(-c3cncnc3)cc(-c3ccn(C4CC4)n3)c12 (centres unmarked) [Example 414]
18,< 2.5 nM,COCCn1ccc(-c2cc(-c3cnc4nn(C)cc4c3)nc3sc([S@+]([O-])CCOC)c(N)c23)n1 [Example 387]
19,< 2.5 nM,Cn1nc2cc(-c3cc(-c4ccnn4C)c4c(N)c([S+]([O-])C5CCC5)sc4n3)cnc2n1 (centres unmarked) [Example 378]
20,< 2.5 nM,Nc1ncc(-c2cc(-c3ccno3)c3c(N)c([S+]([O-])C4CCC4)sc3n2)cn1 (centres unmarked) [Example 350]
21,< 2.5 nM,COC(=O)Nc1ccc(-c2cc(-c3ccnn3C)c3c(N)c([S+]([O-])C4CCC4)sc3n2)cn1 (centres unmarked) [Example 392]
22,< 2.5 nM,Nc1c([S+]([O-])C2CCC2)sc2nc(-c3cn[nH]c(=O)c3)cc(C3CCC3)c12 (centres unmarked) [Example 395]
23,< 2.5 nM,Cn1nccc1-c1cc(-c2cnc3c(c2)ncn3C)nc2sc([S+]([O-])C3CCC3)c(N)c12 (centres unmarked) [Example 383]
24,< 2.5 nM,COCC[S@@+]([O-])c1sc2nc(-c3cnc4ncn(C)c4c3)cc(C3CC3)c2c1N [Example 405]
25,< 2.5 nM,COCC[S+]([O-])c1sc2nc(-c3cnn(C)c(=O)c3)cc(-c3ccccc3)c2c1N (centres unmarked) [Example 397]
26,< 2.5 nM,COCC[S+]([O-])c1sc2nc(-c3cnc4ncn(C)c4c3)cc(-c3ccccc3)c2c1N (centres unmarked) [Example 361]
27,< 2.5 nM,COCC[S@@+]([O-])c1sc2nc(-c3cnc(N)nc3)cc(C3CCC3)c2c1N [Example 346]
